Data set [1] concerns ASG-10. The data set can be described thus: CYP activities in ASG-10: metabolite formation from specific substrates (LC-TQMS). The conditions noted are these: non-induced cells, combined substrates 2; 5; 10 µM, 24 h, 19 °C.
For data set [2], the system named is CYP1A1. Also on record: method as in doi:10.1002/etc.5620161220. As to conditions: juvenile Atlantic salmon; cited from earlier work.
For the next data set, the system named is CYP2K1. Details: method as in doi:10.1002/etc.5620161220. As to conditions: juvenile Atlantic salmon; cited from earlier work.
The next data set concerns CYP3A27. Also on record: method as in doi:10.1002/etc.5620161220. The conditions noted are these: juvenile Atlantic salmon; cited from earlier work.
A short description of data set [3]: CYP activities in salmon liver microsomes (SLMs) and S9. The conditions noted are these: both SLMs (2 mg/mL protein) and S9 (4 mg/mL protein), 20 °C, up to 60 min.
Data set [4] has as its system ASG-10. The data set can be described thus: BZ metabolism in ASG-10 (LC-HRMS/MS). In kind it is in vitro ADME, Atlantic salmon (Salmo salar). As to conditions: 303 µM BZ, 24 h, 45,000 or 90,000 cells/well, LC-HRMS peak areas.
Method: BZ, an anesthetic commonly used in aquaculture, was used to evaluate the potential activity of N-acetyltransferases (NAT) and esterases in ASG-10, SLMs and S9. The production of BZ-related metabolites was determined by liquid chromatography high-resolution tandem mass spectrometry (LC-HRMS/MS). When available, reference standards were used for the specification of metabolites.
BZ metabolism was investigated in ASG-10 cells plated in a 96-well plate as described in Section 2.2. The culture medium was replaced by fresh medium containing BZ (Table 1).
(§1) BZ biotransformation products were determined using a Q Exactive™ hybrid quadrupole-Orbitrap mass spectrometer equipped with a heated electrospray ion source (HESI-II) and coupled to a Vanquish UHPLC system (Thermo Fisher Scientific). […]
(§2) Mass spectra were acquired in the full scan mode, applying sequential data-dependent top 5 analysis (ddMS2-top5) with an inclusion list containing masses of interest. […] BZ and BZ-related compounds were determined by targeted parallel reaction monitoring (PRM). […]
The mobile phase was composed of solvent A (water) and solvent B (MeOH), both containing 0.1% formic acid. […] Raw data were acquired by Xcalibur (Version 4.0, Thermo Fisher Scientific), and molecular formula assignments and mass error were evaluated within the same software (Elemental Composition tab). […]
Data set [5] in a line: Incubation of N-acetylated BZ (AcBZ) in SLMs, hydroxylation. It counts as in vitro ADME, Atlantic salmon. The conditions noted are these: AcBZ as starting substance, 1 h. As to the method: A volume of 30 µL of 1 mg/mL BZ in 100% MeOH was evaporated (40 °C, N2) in a 1.5 mL vial. The residue was redissolved in 100 µL acetic anhydride (Sigma) and 100 µL pyridine (Sigma). The vial was placed at room temperature for 18 h. Subsequently, the reaction was stopped by the addition of 200 µL 100% MeOH. After evaporation, the residue was dissolved in 150 µL 100% MeOH (solution A). As control, 30 µL of BZ solution was evaporated and re-dissolved in 150 µL 100% MeOH (solution B). Afterwards, 3 µL of solutions A and B were incubated in SLMs as described above.

On the set-up of data set [6]: method as in doi:10.1016/S0166-445X(96)00792-8. As to conditions: channel catfish; cited from earlier work.
Data set [7] has as its system CYP1A. The data set can be described thus: CYP1A immunochemical analysis (immunoblot) in BNF-stimulated ASG-10. It counts as cell-based, Atlantic salmon (Salmo salar). As to conditions: 24 h. How it is done: The ASG-10 cells were seeded into 6-well plates as described in Section 2.2. After two days, the cells were stimulated with BNF (1–100 nM, 24 h), a well-known non-toxic inducer of CYP1A protein expression. After exposure, the cells were washed twice in ice-cold PBS and placed at −70 °C until the next day. The cells were then scraped in cell lysis buffer with 0.8% SDS and 1% proteinase inhibitor cocktail added and centrifuged (10,000× g, 1 min) through use of the QIAshredder for homogenization. The protein concentrations were quantified by using the Bio-Rad DC kit (Hercules, CA, USA) and the samples were adjusted to equal protein concentration with lysis buffer before being denatured through the addition of NuPage lithium dodecyl sulfate (LDS) sample buffer and NuPage reducing agent as described by the manufacturer (Invitrogen, Waltham, MA, USA). Blotting was performed using the NuPage Novex system from Invitrogen (Thermo Fisher), applying […] protein per well on a 4–12% NuPage BisTris gel. Separation was performed under reducing conditions for 40 min at 200 V in 3-(N-morpholino) propane sulfonic acid (MOPS)–SDS running buffer using the Novex Sharp pre-stained standard with a range of 3.5–260 kDa. […]

Data set [8] has as its system CYP1A. The data set can be described thus: EROD assay in BNF-stimulated ASG-10. It counts as cell-based, Atlantic salmon (Salmo salar). As to conditions: ASG-10, BNF 1 to 100 nM, 24 h. How it is done: CYP1A induction in BNF-stimulated ASG-10 was measured using the ethoxyresorufin-O-deethylase (EROD) assay. CYP1A converts 7-ethoxyresorufin to resorufin, which can be measured by fluorescence spectroscopy. The assay was performed as described in [17], with minor modifications. Briefly, the cells were seeded in a black 96-well plate as described in Section 2.2. After two days, the cells were incubated with the CYP1A inducer β-naphthoflavone (BNF; 1–100 nM) for 24 h. BNF was dissolved in DMSO. The final DMSO concentration in the cell culture was 0.1%. Appropriate controls containing the same amount of DMSO were included in each experiment. The next day, the culture medium was replaced with 200 µL EROD assay media (DMEM w/o phenol red; 10% FBS, 8 µM 7-ethoxyresorufin), and resorufin fluorescence (excitation: 530 nm/emission: 580 nm) was detected after 60 min using a Spectramax i3x plate reader.

For data set [9], the system named is CYP1A. Details: method as in doi:10.1002/etc.5620160509. As to conditions: PLHC-1, 24 h; cited from earlier work.
The test system of data set [10] is CYP1A. Details: method as in doi:10.1002/etc.5620160509. The conditions noted are these: cited from earlier work.
In data set [11] the test system is CYP1A. Details: method as in PMID 10630570. The conditions noted are these: primary carp hepatocytes, 20 nM, 18 h; cited from earlier work.
Data set [12] concerns CYP1A. Details: method as in PMID 1897246. The conditions noted are these: rainbow trout liver primary cells, 3.6 to 360 nM BNF, 48 h, dose-dependent; cited from earlier work.
Data set [13] relates to CYP1A1. Details: method as in PMID 12413795. The conditions noted are these: BNF exposure; cited from earlier work.
In data set [14] the test system is ASG-10. The data set can be described thus: Alamar Blue assay, metabolic activity/viability of ASG-10. It counts as cell-based, Atlantic salmon (Salmo salar). As to conditions: ASG-10, 121 or 303 µM BZ, 24 h. How it is done: Alamar Blue assay: The metabolic activity/viability of the ASG-10 cell line was measured using the Alamar Blue assay according to the manufacturer’s protocol (Thermo Fisher). After exposure to test compounds with potential cell toxicity, Alamar Blue was added to the cell culture, and incubated for 3 h. […] The fluorescence (excitation: 555 nm/emission: 585 nm) was quantified using a Spectramax i3x plate reader (Molecular Devices, San Jose, CA, USA).
(Resazurin is reduced to fluorescent resorufin, in cell work by metabolically active cells.)

The subject of data set [15] is ASG-10. The data set can be described thus: CellTox Green cytotoxicity assay in ASG-10. As to conditions: ASG-10, 121 or 303 µM BZ, 48 h. In kind it is cell-based, Atlantic salmon (Salmo salar). How it is done: CellTox™ Green assay: The non-toxic dye CellTox™ Green stains DNA in cells with impaired membrane integrity. Binding interactions with DNA produce a fluorescence signal that is proportional to cytotoxicity (necrotic, late apoptotic cells). CellTox™ Green dye was added to the cells as described by the manufacturer (Promega) and fluorescence visualized by microscopy (Zeiss Observer A1, Carl Zeiss, Oberkochen, Germany).

The conditions of data set [16]: cited from earlier work.
For data set [17] the following is noted: cited from earlier work. This is another data set of the same source.
Details of data set [18]: method as in doi:10.5772/intechopen.91700. The conditions noted are these: cited from earlier work.
On the set-up of data set [19]: method as in PMID 1897251. The conditions noted are these: rainbow trout, within 3 h, mainly as AcBZ; cited from earlier work.
Another data set deals with Zebrafish embryos. Details: method as in PMID 27571242. The conditions noted are these: 48 h exposure; cited from earlier work.
For the next data set, the system named is methemoglobin. Details: method as in PMID 32974865. As to conditions: immersion in a sedating BZ dose or repeated anesthesia; cited from earlier work.
Data set [20] can be described thus: UGT activities in salmon liver microsomes (SLMs) and S9. As to conditions: SLMs (2 mg/mL) and S9 (4 mg/mL), 20 °C, up to 60 min.
Data set [21] can be described thus: BZ metabolism in SLMs and S9 (LC-HRMS/MS). The conditions noted are these: SLMs 1 µM BZ, S9 3 µM BZ (Figure 9 legend: 1 µM), 1 h.
Method: The production of BZ-related metabolites was determined by liquid chromatography high-resolution tandem mass spectrometry (LC-HRMS/MS).
Additionally, BZ metabolism was investigated in SLMs (1 µM BZ) and S9 (3 µM BZ) (Table 1). The incubations were first performed separately for phase I and phase II metabolism, and a combined assay was performed afterwards. The reaction mixture (total assay volume 0.5 mL) contained 0.8 mM NADPH, 0.7 mM NADP+, 7.5 mM UDPGA and 0.3 mM UDPAG. Aliquots (150 µL) were drawn at 0, 30 and 60 min and mixed with an equal volume of ice-cold 100% MeCN. […] After filtration (Costar Spin-X® 0.22 mm Nylon filter; Corning, Inc.; Corning, NY, USA), the concentrated samples were analyzed using LC-HRMS/MS.
as §1, §2
Where [22] appears, read: different fish species including rainbow trout and Atlantic salmon.

Results on 13 compounds are retold here after paper PMC10303838, “Atlantic Salmon Gill Epithelial Cell Line (ASG-10) as a Suitable Model for Xenobiotic Biotransformation” (Metabolites, 2023).

Structures can show the parent of a compound that is named as a salt. Where two headings read alike, the source gives them in different places.

Turning to `Cc1ncc2n1-c1ccc(Cl)cc1C(c1ccccc1F)=NC2O` (stereo not shown) [4-OH-MDZ, 4-hydroxymidazolam], in the data set on ASG-10 [1], the “Formation of metabolites of specific CYP substrates in ASG-10” value is recorded as “observed”.

`CCCCCCCCCc1ccc(O)cc1` [4-nonylphenol]: the “CYP1A1 activity in liver” value with CYP1A1 [2] is “dose-dependently reduced”. In the data set on CYP2K1, the “CYP2K1 activity in liver” value is recorded as “dose-dependently reduced”. The “CYP3A27 activity in liver” value with CYP3A27 is on record as “dose-dependently reduced”.

Regarding `O=c1[nH]c2cc(Cl)c(O)cc2o1` [6-OH-CH, 6-hydroxychlorzoxazone], the “Formation of CYP-specific metabolites / substrate conversion in SLMs and S9” value in data set [3] is recorded as “low”.

For `CCOC(=O)c1ccc(NC(C)=O)cc1` [AcBZ, acetylbenzocaine], in the data set on ASG-10 [4], the “BZ metabolites produced in ASG-10 cells” value is “major biotransformation product”. Also, the “Hydroxylation product after incubation in SLMs” value in data set [5] is given as “no longer detectable”. In addition, the “time detected in most tissues after water exposure to BZ” value (“time detected in most tissues” for short) in [6] is reported as “up to 144 h”.

On to `CC(=O)Nc1ccc(C(=O)O)cc1` [AcPABA, p-acetaminobenzoic acid], for which the “time detected in most tissues” value in [6] is “up to 144 h”.

As for `O=c1cc(-c2ccccc2)oc2ccc3ccccc3c12` [BNF, β-naphthoflavone], the CYP1A protein increase entry in the data set with CYP1A [7] (ASG-10, 1 nM BNF) is listed as “visible CYP1A protein increase”. For the same compound, the “CYP1A protein (immunochemical analysis)” value in the data set with CYP1A [7] (ASG-10, BNF 1 to 100 nM) is on record as “concentration-dependent increase”. Moreover, in the data set on CYP1A [8], the “CYP1A enzyme activity (EROD assay)” value was “concentration-dependent increase”. For the same compound, in the data set on CYP1A [9], the “BNF concentration required to produce a detectable CYP1A protein increase” value is 1 µM. In addition, the “increase in EROD enzyme activity” value with CYP1A [10] (PLHC-1, 100 nM BNF) is “eightfold”; in the data set on CYP1A [10] (PLHC-1, 1 µM BNF), 100 fold. For the same compound, the “increase in the EROD rate” value with CYP1A [11] is given as 30 fold. Besides, the “maximum EROD rate increase” value in the data set with CYP1A [12] is reported as “nine-fold”. Further, the “CYP1A1 induction in salmon liver” value in the data set with CYP1A1 [13] is given as “can be induced”.

Turning to `CCOC(=O)c1ccc(N)cc1` [BZ, ethyl 4-aminobenzoate], the “Metabolic activity or viability (Alamar Blue)” value in the data set with ASG-10 [14] was “did not affect”. For the same compound, the “Cytotoxicity (Celltox Green assay)” value with ASG-10 [15] is on record as “no cytotoxicic effects”. Moreover, in data set [16] (setting [22]), the distribution volumes entry is given as “rather high” and the mean residence times result is reported as “below 15 min”. Besides, the plasma half-life result in data set [16] (salmonids) is given as “less than 2 h”. Besides, in [16] (under water exposure), the “time to maximal concentrations in blood” value is “less than 2 min”. Moreover, the “solubility in more lipidic solvents relative to water” value in [17] (MeOH and chloroform) is about 1000 times. Moreover, in [17] (non-salt BZ, 20 °C), the water solubility is 400 µg/mL. The “n-octanol/water coefficient (pKOW)” value in data set [18] is 1.44. In [19], the “share of applied BZ dose eliminated through the gills” value was “about 59%”. Besides, in [6], the “time detected in most tissues” value was “up to 144 h”. Also, the “AcBZ and PABA together as share of the total BZ amount” value with Zebrafish embryos is 90%. For the same compound, the “blood levels of methemoglobin” value in the data set on methemoglobin is “increased blood levels of methemoglobin”.

For `CCOC(=O)c1ccc(NO)cc1` [BZOH, Benzocaine hydroxylamine], the “BZ metabolites produced in ASG-10 cells” value in the data set with ASG-10 [4] is “produced”.

Turning to `CN1CC[C@@]23CCCC[C@@H]2[C@@H]1Cc1ccc(O)cc13` [DOR, dextrophan], in the data set on ASG-10 [1], the “Formation of metabolites of specific CYP substrates in ASG-10” value is recorded as “observed”.

For the compound `CC(=O)NCCc1c[nH]c2ccc(O[C@@H]3O[C@H](C(=O)O)[C@@H](O)[C@H](O)[C@H]3O)cc12` [NAS-GlcA, N-acetyl serotonin β-D-glucuronide], the “Formation of UGT-specific metabolites in SLMs and S9” value in data set [20] was “low”.

As for `C=CCN1CC[C@]23c4c5ccc(O[C@@H]6O[C@H](C(=O)O)[C@@H](O)[C@H](O)[C@H]6O)c4O[C@H]2C(=O)CC[C@@]3(O)[C@H]1C5` [NLX-GlcA, naloxone-3β-D glucuronide], the “Formation of UGT-specific metabolites in SLMs and S9” value in [20] was “highest metabolite level”.

In the case of `Nc1ccc(C(=O)O)cc1` [PABA, p-aminobenzoic acid], the “BZ metabolites in SLM and S9 incubations” value in [21] is on record as “not detectable”.

On to `CN1CCN(CCCN2c3ccccc3Sc3ccc(C(F)(F)F)cc32)CC1` [TFP, trifluoperazine dihydrochloride], for which the “Formation of UGT-specific metabolites in SLMs and S9” value in data set [20] is “not measurable”.
